The source of these data is patent publication US11571423B2, “Small molecule modulators of human sting” (Curadev Pharma Limited, priority 2017, dated 2023).

The structures appear in SMILES notation.

hSTING(R232), sequence (Q86WV6 whole entry H232R, the tested form may be a part): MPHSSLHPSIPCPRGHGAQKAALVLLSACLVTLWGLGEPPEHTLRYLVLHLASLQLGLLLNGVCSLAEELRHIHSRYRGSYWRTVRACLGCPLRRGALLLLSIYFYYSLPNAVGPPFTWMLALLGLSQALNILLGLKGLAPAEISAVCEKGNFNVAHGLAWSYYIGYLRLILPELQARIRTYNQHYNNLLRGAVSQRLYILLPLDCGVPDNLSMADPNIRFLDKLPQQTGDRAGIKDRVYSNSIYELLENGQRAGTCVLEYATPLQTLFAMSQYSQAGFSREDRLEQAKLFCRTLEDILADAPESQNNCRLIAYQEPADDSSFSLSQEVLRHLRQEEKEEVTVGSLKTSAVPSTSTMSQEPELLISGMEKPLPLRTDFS

This assay has as its target hSTING(R232) (Homo sapiens, UniProt Q86WV6, H232R). The experiment in a line: Luciferase reporter assay in HEK293T-hSTING-Luciferase cells, R232 (wild type) human STING. The assay is classed as cell-based. The settings on record: 20 hr stimulation, read-out: R232 human activity (EC50 range). Summed up: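 After 20 hr compound stimulation of 5×10^5 cells, secreted luciferase in the supernatant was measured by luminescence; values are fold-induction over baseline and EC50. The line is a clonal HEK293T stably carrying a STING plasmid (pUNO-1) and a luciferase reporter under five tandem ISREs fused to an ISG54 promoter.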
Background: A reporter such as luciferase makes a cellular process visible.
The EC50 is the concentration giving half of the maximal effect. On to `CC1c2ccc(C(=O)NCc3c(F)cc(F)cc3F)cc2N(Cc2ccccc2)C(=O)N1C` (stereo not drawn) [Example 191, 1-benzyl-3,4-dimethyl-2-oxo-N-(2,4,6-trifluorobenzyl)-1,2,3,4-tetrahydroquinazoline-7-carboxamide], for which the EC50 was less than 1000 nM.

In the case of `CC1c2ccc(C(=O)NCc3c(F)cc(F)cc3F)cc2N(Cc2ccccc2)C(=O)N1C` (stereo not drawn) [Example 192, 1-benzyl-3,4-dimethyl-2-oxo-N-(2,4,6-trifluorobenzyl)-1,2,3,4-tetrahydroquinazoline-7-carboxamide], the half-maximal effective concentration (EC50) is less than 1000 nM.

Regarding `CC1c2ccc(C(=O)NCc3c(F)cc(F)cc3F)cc2N(Cc2ccccc2F)C(=O)N1C` (stereo not drawn) [Example 194, 1-(2-fluorobenzyl)-3,4-dimethyl-2-oxo-N-(2,4,6-trifluorobenzyl)-1,2,3,4-tetrahydroquinazoline-7-carboxamide], the EC50 is less than 1000 nM.

For the compound `CC1c2ccc(C(=O)NCc3c(F)cc(F)cc3F)cc2N(Cc2c(F)cccc2F)C(=O)N1C` (stereo not drawn) [Example 195, 1-(2,6-difluorobenzyl)-3,4-dimethyl-2-oxo-N-(2,4,6-trifluorobenzyl)-1,2,3,4-tetrahydroquinazoline-7-carboxamide], the EC50 was less than 1000 nM.

Consider `CC1c2ccc(C(=O)NCc3ccc(F)cc3F)cc2N(Cc2ccccc2F)C(=O)N1C` (stereo not drawn) [Example 197, N-(2,4-difluorobenzyl)-1-(2-fluorobenzyl)-3,4-dimethyl-2-oxo-1,2,3,4-tetrahydroquinazoline-7-carboxamide], for which the EC50 was less than 1000 nM.

As to `Cc1cc(CN2C(=O)N(C)C(C)c3ccc(C(=O)NCc4c(F)cc(F)cc4F)cc32)ccn1` (stereo not drawn) [Example 198, 3,4-dimethyl-1-((2-methylpyridin-4-yl)methyl)-2-oxo-N-(2,4,6-trifluorobenzyl)-1,2,3,4-tetrahydroquinazoline-7-carboxamide], the EC50 is less than 1000 nM.

Take `Cc1cc(CN2C(=O)N(C)C(C)c3ccc(C(=O)NCc4c(F)cc(F)cc4F)cc32)on1` (stereo not drawn) [Example 199, 3,4-dimethyl-1-((3-methylisoxazol-5-yl)methyl)-2-oxo-N-(2,4,6-triflurobenzyl)-1,2,3,4-tetrahydroquinazoline-7-carboxamide]: the EC50 was greater than 10000 nM.

For `Cc1cc(CN2C(=O)N(C)C(C)c3ccc(C(=O)NCc4c(F)cc(F)cc4F)cc32)no1` (stereo not drawn) [Example 200, 3,4-dimethyl-1-((5-methylisoxazol-3-yl)methyl)-2-oxo-N-(2,4,6-trifluorobenzyl)-1,2,3,4-tetrahydroquinazoline-7-carboxamide], the EC50 is greater than 10000 nM.

On to `CC1c2ccc(C(=O)NCc3c(F)cc(F)cc3F)cc2N(Cc2ccccc2F)C(=O)N1C` (stereo not drawn) [Example 201, 1-(2-fluorobenzyl)-3,4-dimethyl-2-oxo-N-(2,4,6-trifluorobenzyl)-1,2,3,4-tetrahydroquinazoline-7-carboxamide], for which the EC50 is less than 1000 nM.

With `CC1c2ccc(C(=O)NCc3c(F)cc(F)cc3F)cc2N(Cc2c(F)cccc2F)C(=O)N1C` (stereo not drawn) [Example 205, 1-(2,6-difluorobenzyl)-3,4-dimethyl-2-oxo-N-(2,4,6-trifluorobenzyl)-1,2,3,4-tetrahydroquinazoline-7-carboxamide], the EC50 is less than 1000 nM.

Consider `Cc1cc(CN2C(=O)N(C)C(C)c3ccc(C(=O)NCc4c(F)cc(F)cc4F)cc32)ccn1` (stereo not drawn) [Example 207, 3,4-dimethyl-1-((2-methylpyridin-4-yl)methyl)-2-oxo-N-(2,4,6-trifluorobenzyl)-1,2,3,4-tetrahydroquinazoline-7-carboxamide], for which the EC50 was in the range of 1000 to 10000 nM.

For the compound `CC1c2ccc(C(=O)NCc3c(F)cc(F)cc3F)cc2N(Cc2c(F)cc(F)cc2OC(F)(F)F)C(=O)N1C` (stereo not drawn) [Example 210, 1-(2,4-difluoro-6-(trifluoromethoxy)benzyl)-3,4-dimethyl-2-oxo-N-(2,4,6-trifluorobenzyl)-1,2,3,4-tetrahydroquinazoline-7-carboxamide], the EC50 was less than 1000 nM.

Regarding `CC1c2ccc(C(=O)NCc3c(F)cc(F)cc3F)cc2N(Cc2ccncc2F)C(=O)N1C` (stereo not drawn) [Example 211, 1-((3-fluoropyridin-4-yl)methyl)-3,4-dimethyl-2-oxo-N-(2,4,6-trifluorobenzyl)-1,2,3,4-tetrahydroquinazoline-7-carboxamide], the EC50 is less than 1000 nM.

`CC1c2ccc(C(=O)NCc3ccccc3)cc2N(Cc2ccccc2)C(=O)N1C` (stereo not drawn) [Example 214, N,1-dibenzyl-3,4-dimethyl-2-oxo-1,2,3,4-tetrahydroquinazoline-7-carboxamide]: the EC50 is 1000 to 10000 nM.

As for `Cc1cccc(C)c1CN1C(=O)N(C)C(C)c2ccc(C(=O)NCc3c(F)cc(F)cc3F)cc21` (stereo not drawn) [Example 215, 1-(2,6-dimethylbenzyl)-3,4-dimethyl-2-oxo-N-(2,4,6-trifluorobenzyl)-1,2,3,4-tetrahydroquinazoline-7-carboxamide], the EC50 was less than 1000 nM.

As to `CC1c2ccc(C(=O)NCc3c(F)cc(F)cc3F)cc2N(Cc2c(F)cccc2OC(F)F)C(=O)N1C` (stereo not drawn) [Example 216, 1-(2-(difluoromethoxy)-6-fluorobenzyl)-3,4-dimethyl-2-oxo-N-(2,4,6-trifluorobenzyl)-1,2,3,4-tetrahydroquinazoline-7-carboxamide], the EC50 is less than 1000 nM.

Regarding `COc1ccc(CN2C(=O)N(C)C(C)c3ccc(C(=O)NCc4c(F)cc(F)cc4F)cc32)c(F)c1` (stereo not drawn) [Example 217, 1-(2-fluoro-4-methoxybenzyl)-3,4-dimethyl-2-oxo-N-(2,4,6-trifluorobenzyl)-1,2,3,4-tetrahydroquinazoline-7-carboxamide], the 50% effective concentration (EC50) is less than 1000 nM.

`CC1c2ccc(C(=O)NCc3c(F)cc(F)cc3F)cc2N(Cc2ccc(F)cc2)C(=O)N1C` (stereo not drawn) [Example 218, 1-(4-fluorobenzyl)-3,4-dimethyl-2-oxo-N-(2,4,6-trifluorobenzyl)-1,2,3,4-tetrahydroquinazoline-7-carboxamide]: the EC50 was less than 1000 nM.

`CC1c2ccc(C(=O)NCc3c(F)cc(F)cc3F)cc2N(Cc2ccc(Cl)cc2F)C(=O)N1C` (stereo not drawn) [Example 219, 1-(4-chloro-2-fluorobenzyl)-3,4-dimethyl-2-oxo-N-(2,4,6-trifluorobenzyl)-1,2,3,4-tetrahydroquinazoline-7-carboxamide]: the EC50 was less than 1000 nM.

`Cc1ccc(F)c(CN2C(=O)N(C)C(C)c3ccc(C(=O)NCc4c(F)cc(F)cc4F)cc32)c1Br` (stereo not drawn) [Example 220, 1-(2-bromo-6-fluoro-3-methylbenzyl)-3,4-dimethyl-2-oxo-N-(2,4,6-trifluorobenzyl)-1,2,3,4-tetrahydroquinazoline-7-carboxamide]: the EC50 is less than 1000 nM.

On to `CC1c2ccc(C(=O)NCc3c(F)cc(F)cc3F)cc2N(Cc2ccc(F)cc2Cl)C(=O)N1C` (stereo not drawn) [Example 221, 1-(2-chloro-4-fluorobenzyl)-3,4-dimethyl-2-oxo-N-(2,4,6-trifluorobenzyl)-1,2,3,4-tetrahydroquinazoline-7-carboxamide], for which the EC50 is less than 1000 nM.

With `CC1c2ccc(C(=O)NCc3c(F)cc(F)cc3F)cc2N(Cc2c(F)cc(Cl)cc2F)C(=O)N1C` (stereo not drawn) [Example 222, 1-(4-chloro-2,6-difluorobenzyl)-3,4-dimethyl-2-oxo-N-(2,4,6-trifluorobenzyl)-1,2,3,4-tetrahydroquinazoline-7-carboxamide], the 50% effective concentration (EC50) is less than 1000 nM.

As to `Cc1cc(CN2C(=O)N(C)C(C)c3ccc(C(=O)NCc4cc5cc(F)ccc5o4)cc32)n(C)n1` (stereo not drawn) [Example 223, 1-((1,3-dimethyl-1H-pyrazol-5-yl)methyl)-N-((5-fluorobenzofuran-2-yl)methyl)-3,4-dimethyl-2-oxo-1,2,3,4-tetrahydroquinazoline-7-carboxamide], the EC50 is 1000 to 10000 nM.

As for `Cc1nn(C)c(CN2C(=O)N(C)C(C)c3ccc(C(=O)NCc4cc5cc(F)ccc5o4)cc32)c1F` (stereo not drawn) [Example 224, 1-((4-fluoro-1,3-dimethyl-1H-pyrazol-5-yl)methyl)-N-((5-fluorobenzofuran-2-yl)methyl)-3,4-dimethyl-2-oxo-1,2,3,4-tetrahydroquinazoline-7-carboxamide], the EC50 is less than 1000 nM.

For the compound `CC1c2ccc(C(=O)NCc3c(F)cc(F)cc3F)cc2N(Cc2c(F)cccc2NS(C)(=O)=O)C(=O)N1C` (stereo not drawn) [Example 225, 1-(2-fluoro-6-(methylsulfonamido)benzyl)-3,4-dimethyl-2-oxo-N-(2,4,6-trifluorobenzyl)-1,2,3,4-tetrahydroquinazoline-7-carboxamide], the EC50 is 1000 to 10000 nM.

For `CC(=O)Nc1cccc(F)c1CN1C(=O)N(C)C(C)c2ccc(C(=O)NCc3c(F)cc(F)cc3F)cc21` (stereo not drawn) [Example 226, 1-(2-acetamido-6-fluorobenzyl)-3,4-dimethyl-2-oxo-N-(2,4,6-trifluorobenzyl)-1,2,3,4-tetrahydroquinazoline-7-carboxamide], the EC50 is 1000 to 10000 nM.

In the case of `CC1c2ccc(C(=O)NCc3c(F)cc(F)cc3F)cc2N(Cc2ccc(OCC(=O)O)cc2F)C(=O)N1C` (stereo not drawn) [Example 228, 2-(4-((3,4-dimethyl-2-oxo-7-((2,4,6-trifluorobenzyl)carbamoyl)-3,4-dihydroquinazolin-1(2H)-yl)methyl)-3-fluorophenoxy)acetic acid], the EC50 is greater than 10000 nM.

For `CC1c2ccc(C(=O)NCc3c(F)cc(F)cc3F)cc2N(Cc2cc(OCC(=O)O)ccc2F)C(=O)N1C` (stereo not drawn) [Example 229, 2-(3-((3,4-dimethyl-2-oxo-7-((2,4,6-trifluorobenzyl)carbamoyl)-3,4-dihydroquinazolin-1(2H)-yl)methyl)-4-fluorophenoxy)acetic acid], the concentration giving a half-maximal response (EC50) is greater than 10000 nM.

In the case of `CC1c2ccc(C(=O)NCc3c(F)cc(F)cc3F)cc2N(Cc2ccc(OCCO)cc2F)C(=O)N1C` (stereo not drawn) [Example 230, 1-(2-fluoro-4-(2-hydroxyethoxy)benzyl)-3,4-dimethyl-2-oxo-N-(2,4,6-trifluorobenzyl)-1,2,3,4-tetrahydroquinazoline-7-carboxamide], the EC50 is less than 1000 nM.

Take `CC1c2ccc(C(=O)NCc3c(F)cc(F)cc3F)cc2N(Cc2cc(OCCO)ccc2F)C(=O)N1C` (stereo not drawn) [Example 233, 1-(2-fluoro-5-(2-hydroxyethoxy)benzyl)-3,4-dimethyl-2-oxo-N-(2,4,6-trifluorobenzyl)-1,2,3,4-tetrahydroquinazoline-7-carboxamide]: the half-maximal effective concentration (EC50) is less than 1000 nM.
